Columns and labels:
[1] = Source text: A second drug, such as paclitaxel, which is soluble in anisole can be provided in the top layers. Therefore, the arrangement shown in FIG. 4 can include 2-CdA in the first therapeutic agent layer 60 and paclitaxel in the second therapeutic agent layer 70.
[2] = cited from earlier work

## Nc1nc(Cl)nc2c1ncn2[C@H]1C[C@H](O)[C@@H](CO)O1 [2-CdA, 2-chlorodeoxyadenosine]
[1]
  solubility in first solvent, DMSO: very soluble
  solubility in second solvent, anisole: marginal solubility
[2]
  water solubility: about 4.5 mg/ml
